Experiments:
MCT1 [1] = biological target: T1, MCT1 (Homo sapiens, UniProt P53985); experiment: functional 3-BP cell viability assay (MCT1 transport inhibition); type: cell-based; conditions: MCT1-expressing A-549 cells, 50 μM 3-BP, 72 h; read-out: MCT1 transport inhibition IC50 ± SEM
T1 construct: MCT1-expressing A-549 cells[14],[15] were exposed to the MCT1 substrate 3-BP, which becomes influxed by MCT1; endogenous in cells; host or cells: A-549 lung cancer cells (from NCCS, Pune)
T1 sequence (P53985 1-500): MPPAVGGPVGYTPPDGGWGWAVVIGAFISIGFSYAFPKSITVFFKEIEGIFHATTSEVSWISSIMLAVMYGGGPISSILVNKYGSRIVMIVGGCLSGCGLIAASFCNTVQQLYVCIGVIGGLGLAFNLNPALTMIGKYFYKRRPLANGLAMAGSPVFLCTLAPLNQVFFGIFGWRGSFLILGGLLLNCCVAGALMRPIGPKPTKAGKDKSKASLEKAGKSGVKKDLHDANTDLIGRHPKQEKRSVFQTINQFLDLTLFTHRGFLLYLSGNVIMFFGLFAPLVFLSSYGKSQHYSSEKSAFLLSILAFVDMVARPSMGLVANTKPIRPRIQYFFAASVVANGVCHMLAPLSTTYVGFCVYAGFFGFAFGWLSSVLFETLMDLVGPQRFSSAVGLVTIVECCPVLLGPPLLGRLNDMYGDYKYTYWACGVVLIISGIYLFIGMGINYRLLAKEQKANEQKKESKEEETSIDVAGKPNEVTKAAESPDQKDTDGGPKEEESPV
T1 sequence (P35613 140-385 partner limits assumed): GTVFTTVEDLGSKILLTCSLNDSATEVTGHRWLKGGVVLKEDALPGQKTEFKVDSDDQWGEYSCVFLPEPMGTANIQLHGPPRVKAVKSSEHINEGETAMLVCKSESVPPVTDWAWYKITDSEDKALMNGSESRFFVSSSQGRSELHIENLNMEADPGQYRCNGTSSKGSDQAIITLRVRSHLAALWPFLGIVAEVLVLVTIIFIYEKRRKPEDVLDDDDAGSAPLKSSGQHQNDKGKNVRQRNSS
Experimental: The inhibitory activity of indole derivatives against MCT1 was determined by applying a functional 3-bromopyruvate (3-BP) cell viability assay, as described in the literature[20],[39] with minor modifications. In short, MCT1-expressing A-549 cells[14],[15] were exposed to the MCT1 substrate 3-BP, which becomes influxed by MCT1. 3-BP is toxic, leading to decreased cell viability. Functional inhibition of MCT1 results in reduced intracellular 3-BP levels and, thus, enhanced cell viability compared to no inhibition. […] Table 1 provides the half-maximal inhibition concentration (IC50) values of compounds 17–32.
A functional 3-BP cytotoxicity assay was conducted as described in the literature[20],[39] with minor modifications. Dilution series of compounds 17–32 between 1 nM and 1 μM were prepared in DPBS (Cell Clone, Genetix Biotech Asia, New Delhi India), and 10 μL of each concentration was pipetted into a colorless flat-bottom 96-well microplate (SPL Life Sciences, Gyeonggi-do, Republic of Korea). One hundred and eighty microliters of a cell suspension (5000 cells/well) of A-549 cells was added, and subsequently, 10 μL of 3-BP was added at a concentration of 1 mM (final concentration per well: 50 μM). The plate was kept for 72 h at 37 °C under a 5% CO2-humidified atmosphere. Cell viability was determined as described before[43] by adding 20 μL of a 5 mg/mL solution of MTT to each well and further incubation for 1 h. Eventually, the supernatant was removed and 100 μL of DMSO was added to each well. The absorbance was spectrophotometrically determined at 570 nm using a SpectraMax iD3 multi-mode microplate reader (Molecular Devices, San Jose, CA) with a background correction (690 nm). The determined absorbance values were correlated to the logarithmic concentrations of compounds 17–32, and IC50 values were calculated applying nonlinear regression using GraphPad Prism (version 8.4.0., San Diego, CA).

A-549 cancer cells = experiment: MTT-based cell viability assay, A-549; conditions: Homo sapiens, A549, 72 h, read-out: A-549 cancer cell toxicity GI50 ± SEM
From the text: (§1) MCT1-expressing cells have an extraordinary energy demand and rely on pyruvate metabolism, through either lactate conversion or pyruvate consumption. Inhibition of MCT1 blocks lactate and pyruvate influx into cancer cells, which prevents their processing in the TCA cycle. Over time, the viability of cells exposed to an MCT1 inhibitor is impaired due to pyruvate deprivation, which is compensated by upregulating glucose metabolism—leading to an overconsumption of glucose. To confirm the antiproliferative nature of the indole derivatives, we investigated the compounds toward the MCT1-expressing cell lines A-549[14],[15] and MCF-7.[16] Cancer cell viability was assessed via a 3-(4,5-dimethylthiazol-2-yl)-2,5-diphenyltetrazolium bromide (MTT) assay, as reported earlier.[43]
(§2) To determine the growth inhibitory potential of compounds 17–32, […] of each compound either at concentrations between 1 and 100 μM (A-549 or MCF-7) or at 10 and 50 μM (NIH/3T3) was pipetted into colorless flat-bottom 96-well microplates. Thereafter, 180 μL of a cell suspension (5000 cells/well) of either A-549, MCF-7, or NIH/3T3 cells was added and subsequently kept for 72 h at 37 °C under a 5% CO2-humidified atmosphere. The cell viability as well as the GI50 values were determined as described above.[43]

MCF-7 cancer cells = experiment: MTT-based cell viability assay, MCF-7; conditions: Homo sapiens, MCF7, 72 h, read-out: MCF-7 cancer cell toxicity GI50 ± SEM
From the text: as §1, §2

MCT1 [2] = biological target: T1, MCT1; conditions: cited from earlier work
ABCB1 [3] = biological target: T2, ABCB1 (Homo sapiens, UniProt P08183); experiment: daunorubicin assay, ABCB1-expressing A2780/ADR cells; type: cell-based; conditions: A2780/ADR cells; read-out: ABCB1 daunorubicin IC50 ± SEM
T2 sequence (P08183 whole entry): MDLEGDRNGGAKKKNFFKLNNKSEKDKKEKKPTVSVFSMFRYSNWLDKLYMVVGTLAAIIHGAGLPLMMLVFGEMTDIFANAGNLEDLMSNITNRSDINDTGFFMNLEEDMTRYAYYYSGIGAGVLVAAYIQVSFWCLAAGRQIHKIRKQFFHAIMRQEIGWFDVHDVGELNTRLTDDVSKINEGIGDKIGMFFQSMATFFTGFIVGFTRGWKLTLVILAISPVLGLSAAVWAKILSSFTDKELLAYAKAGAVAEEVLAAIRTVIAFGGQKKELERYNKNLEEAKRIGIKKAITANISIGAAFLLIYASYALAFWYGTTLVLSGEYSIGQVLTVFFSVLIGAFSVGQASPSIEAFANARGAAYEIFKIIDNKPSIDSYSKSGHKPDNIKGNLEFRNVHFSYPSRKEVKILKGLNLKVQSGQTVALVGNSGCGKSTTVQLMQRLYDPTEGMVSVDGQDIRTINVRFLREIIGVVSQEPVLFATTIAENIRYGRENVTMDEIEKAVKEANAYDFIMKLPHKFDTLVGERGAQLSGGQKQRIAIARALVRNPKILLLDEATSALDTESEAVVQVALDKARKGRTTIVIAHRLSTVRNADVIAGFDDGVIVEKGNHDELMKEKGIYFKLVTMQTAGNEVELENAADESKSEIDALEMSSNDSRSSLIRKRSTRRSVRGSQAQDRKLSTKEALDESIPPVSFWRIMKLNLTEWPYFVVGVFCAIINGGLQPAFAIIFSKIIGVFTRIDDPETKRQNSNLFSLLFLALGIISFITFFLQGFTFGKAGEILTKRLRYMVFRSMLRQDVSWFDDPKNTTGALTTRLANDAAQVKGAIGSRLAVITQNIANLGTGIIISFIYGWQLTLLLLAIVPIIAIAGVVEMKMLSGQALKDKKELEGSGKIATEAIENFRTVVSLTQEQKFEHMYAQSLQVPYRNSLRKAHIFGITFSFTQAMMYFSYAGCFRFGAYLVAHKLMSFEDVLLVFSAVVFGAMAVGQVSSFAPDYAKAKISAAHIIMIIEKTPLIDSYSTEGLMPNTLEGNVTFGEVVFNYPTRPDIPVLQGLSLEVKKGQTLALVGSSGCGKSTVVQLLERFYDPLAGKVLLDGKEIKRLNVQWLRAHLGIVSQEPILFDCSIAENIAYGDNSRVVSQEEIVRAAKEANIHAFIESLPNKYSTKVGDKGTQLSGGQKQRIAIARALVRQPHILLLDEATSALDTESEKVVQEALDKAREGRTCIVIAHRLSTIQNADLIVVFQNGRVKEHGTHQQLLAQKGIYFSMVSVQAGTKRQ

[4] = biological target: ABCB1 (P-glycoprotein, P-gp) (Homo sapiens, UniProt P08183); experiment: as above; type: cell-based; conditions: human, ABCB1-expressing A2780/ADR cells, probe daunorubicin (3 μM final); relative to reference inhibitor 34 = 100%; read-out: maximal inhibition (Imax), ABCB1 daunorubicin
Chain of ABCB1 (P-glycoprotein, P-gp) (P08183 whole entry): as above

ABCC1 = ABCC1 (Homo sapiens, UniProt P33527); experiment: daunorubicin assay, ABCC1-expressing H69AR cells; conditions: for ABCC1 inhibition: screening at 10 μM, inhibitor if 20% (+SEM) reached; for inhibition at 10 µM: H69AR, read-out: inhibition of ABCC1 in screening; for IC50: read-out: ABCC1 daunorubicin IC50 ± SEM, H69AR cells, 22, 23 constrained to reference inhibitor 35
Chain of ABCC1 (P33527 whole entry): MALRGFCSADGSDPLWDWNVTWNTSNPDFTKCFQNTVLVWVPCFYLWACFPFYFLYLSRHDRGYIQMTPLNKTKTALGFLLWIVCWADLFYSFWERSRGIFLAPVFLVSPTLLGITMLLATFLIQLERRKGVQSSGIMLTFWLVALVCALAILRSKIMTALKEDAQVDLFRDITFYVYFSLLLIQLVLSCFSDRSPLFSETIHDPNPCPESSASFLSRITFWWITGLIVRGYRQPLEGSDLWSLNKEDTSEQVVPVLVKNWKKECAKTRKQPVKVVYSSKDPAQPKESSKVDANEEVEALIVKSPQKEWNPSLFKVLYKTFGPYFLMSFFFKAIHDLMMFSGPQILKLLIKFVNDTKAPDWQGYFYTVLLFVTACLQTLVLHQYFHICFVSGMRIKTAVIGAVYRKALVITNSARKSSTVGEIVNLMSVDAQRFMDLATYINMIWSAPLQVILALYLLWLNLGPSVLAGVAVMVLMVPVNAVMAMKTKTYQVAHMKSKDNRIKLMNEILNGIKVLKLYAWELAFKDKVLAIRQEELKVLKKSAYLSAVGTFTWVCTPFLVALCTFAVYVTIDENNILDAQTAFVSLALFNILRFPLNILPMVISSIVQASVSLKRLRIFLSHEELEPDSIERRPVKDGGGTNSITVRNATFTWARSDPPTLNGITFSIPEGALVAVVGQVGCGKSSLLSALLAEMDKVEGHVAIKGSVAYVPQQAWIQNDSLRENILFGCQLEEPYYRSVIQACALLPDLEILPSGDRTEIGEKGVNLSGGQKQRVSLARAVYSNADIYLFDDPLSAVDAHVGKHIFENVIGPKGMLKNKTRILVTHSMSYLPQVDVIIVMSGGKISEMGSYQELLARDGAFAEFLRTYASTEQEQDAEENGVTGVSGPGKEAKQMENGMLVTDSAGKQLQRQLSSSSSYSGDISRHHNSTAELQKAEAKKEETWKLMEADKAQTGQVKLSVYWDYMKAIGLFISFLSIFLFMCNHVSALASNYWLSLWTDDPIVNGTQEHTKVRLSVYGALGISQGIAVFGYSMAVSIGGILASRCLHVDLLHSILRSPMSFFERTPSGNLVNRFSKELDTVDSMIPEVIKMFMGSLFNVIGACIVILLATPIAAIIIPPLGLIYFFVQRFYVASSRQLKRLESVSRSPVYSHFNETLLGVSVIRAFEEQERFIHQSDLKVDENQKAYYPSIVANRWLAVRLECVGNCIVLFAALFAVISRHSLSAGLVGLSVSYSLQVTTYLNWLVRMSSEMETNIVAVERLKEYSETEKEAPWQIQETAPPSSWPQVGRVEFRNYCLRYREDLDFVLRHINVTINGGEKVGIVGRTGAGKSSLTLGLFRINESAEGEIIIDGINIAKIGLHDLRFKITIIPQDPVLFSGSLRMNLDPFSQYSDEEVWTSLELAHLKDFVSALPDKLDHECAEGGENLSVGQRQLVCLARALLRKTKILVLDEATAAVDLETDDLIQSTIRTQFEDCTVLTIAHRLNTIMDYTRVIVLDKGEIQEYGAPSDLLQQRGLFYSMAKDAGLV
From the text: (§3) To provide a detailed picture of the pharmacological profile of the indole derivatives, we investigated their modulatory nature on the most prominent ABC transporters ABCB1 (P-glycoprotein, P-gp), ABCC1, (multidrug resistance-associated protein 1, MRP1), and ABCG2 (breast cancer resistance protein, BCRP). Here, we conducted calcein AM (ABCB1),[2],[52]−[59] daunorubicin (ABCC1),[52],[58]−[60] and pheophorbide A (ABCG2)[2],[52]−[60] assays using ABCB1-expressing A2780/ADR, ABCC1-expressing H69AR, and ABCG2-expressing MDCK II BCRP cells, respectively.
(§4) The calcein AM (ABCB1),[2],[52]−[59] daunorubicin (ABCB1[52],[60] and ABCC1[52],[58]−[60]), and pheophorbide A (ABCG2)[2],[52]−[60] assays were conducted as reported earlier. […] The data was processed using GraphPad Prism version 8.4.0, and IC50 values were determined, applying three- or four-parameter logistic equations, whatever was statistically preferred.

ABCB1 [5] = biological target: T2, ABCB1; experiment: calcein AM assay, ABCB1-expressing A2780/ADR cells; conditions: for IC50: read-out: ABCB1 calcein AM IC50 ± SEM, A2780/ADR cells, 22, 23 constrained to reference inhibitor 34; for ABCB1 inhibition: screening at 10 μM, inhibitor if 20% (+SEM) reached
From the text: as §3, §4

ABCG2 (BCRP) = biological target: T3, ABCG2 (BCRP) (Homo sapiens, UniProt Q9UNQ0); experiment: pheophorbide A assay, ABCG2-expressing MDCK II BCRP cells; conditions: human, ABCG2-expressing MDCK II BCRP cells, probe pheophorbide A (0.5 μM final)
T3 sequence (Q9UNQ0 1-655): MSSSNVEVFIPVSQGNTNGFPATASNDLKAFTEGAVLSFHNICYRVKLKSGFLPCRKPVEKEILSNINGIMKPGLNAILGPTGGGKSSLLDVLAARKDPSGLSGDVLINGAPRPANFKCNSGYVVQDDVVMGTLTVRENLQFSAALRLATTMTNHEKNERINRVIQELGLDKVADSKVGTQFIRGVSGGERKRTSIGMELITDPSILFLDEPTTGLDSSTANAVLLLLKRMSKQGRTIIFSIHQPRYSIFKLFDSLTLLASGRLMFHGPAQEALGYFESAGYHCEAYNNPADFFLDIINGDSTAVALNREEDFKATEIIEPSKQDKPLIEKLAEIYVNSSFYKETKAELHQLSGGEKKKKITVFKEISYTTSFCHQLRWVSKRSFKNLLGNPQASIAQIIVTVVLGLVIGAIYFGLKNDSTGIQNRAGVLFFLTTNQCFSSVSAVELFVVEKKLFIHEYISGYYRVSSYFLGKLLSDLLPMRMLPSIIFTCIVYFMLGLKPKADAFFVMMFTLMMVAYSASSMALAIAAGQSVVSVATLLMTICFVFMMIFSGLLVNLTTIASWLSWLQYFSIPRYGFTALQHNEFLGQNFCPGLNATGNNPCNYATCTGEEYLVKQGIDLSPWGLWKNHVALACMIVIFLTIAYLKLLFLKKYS
From the text: as §3, §4

ABCG2 = biological target: T4, ABCG2 (Homo sapiens, UniProt Q9UNQ0); experiment: as above; conditions: for ABCG2 inhibition: screening at 10 μM, inhibitor if 20% (+SEM) reached
T4 sequence (Q9UNQ0 1-655): T3 sequence (Q9UNQ0 1-655)
From the text: as §3, §4

| Structure (SMILES) | IC50 (MCT1 [1]) | GI50 (A-549 cancer cells) | GI50 (MCF-7 cancer cells) | inhibitory power (MCT1) in the literature (MCT1 [2]) | IC50 (ABCB1 [3]) | inhibition at 180 min [4] | ABCC1 inhibition (ABCC1) | IC50 (ABCB1 [5]) | ABCB1 inhibition (ABCB1 [5]) | inhibition at 10 µM (ABCC1) | IC50 (ABCC1) | inhibition at 120 min, 10 μM (ABCG2 (BCRP)) | IC50 (ABCG2) | ABCG2 inhibition (ABCG2) |
| --- | --- | --- | --- | --- | --- | --- | --- | --- | --- | --- | --- | --- | --- | --- |
| N#C/C(=C\c1ccc(O)cc1)C(=O)O [Compound 8, reference compound] | 0.0872 ± 0.0035 µM | 52.7 ± 0.2 µM | 108 ± 3 µM | submillimolar to low micromolar concentration ranges | – | – | – | – | – | – | – | – | – | – |
| COC(=O)/C(C#N)=C/c1cn(CC(=O)Nc2ccc(Br)cn2)c2ccccc12 [Compound 31, Methyl-3-(1-(2-((5-bromopyridin-2-yl)amino)-2-oxoethyl)-1H-indol-3-yl)-2-cyanoacrylate] | 0.214 ± 0.032 µM | 18.8 ± 0.2 µM | 3.13 ± 0.23 µM | – | 1.19 ± 0.12 µM | 39% | X (Compounds were considered as inhibitors if they reached 20% (+SEM) inhibition compared to the reference inhibitors 33–35; X = fulfilled) | 1.4 ± 0.11 µM | X (Compounds were considered as inhibitors if they reached 20% (+SEM) inhibition compared to the reference inhibitors 33–35; X = fulfilled) | – | – | – | – | – |
| COC(=O)/C(C#N)=C/c1cn(CC(=O)Nc2cccc(OC)c2)c2ccccc12 [Compound 23, Methyl-2-cyano-3-(1-(2-((3-methoxyphenyl)amino)-2-oxoethyl)-1H-indol-3-yl) Acrylate] | 0.105 ± 0.009 µM | 25.5 ± 0.5 µM | 14.7 ± 0.2 µM | – | – | – | X (Compounds were considered as inhibitors if they reached 20% (+SEM) inhibition compared to the reference inhibitors 33–35; X = fulfilled) | 5.32 ± 1.67 µM | X (Compounds were considered as inhibitors if they reached 20% (+SEM) inhibition compared to the reference inhibitors 33–35; X = fulfilled) | ≥ 20% | 19.1 ± 3.4 µM | ≥ 20% | 43.5 ± 7.5 µM | X (Compounds were considered as inhibitors if they reached 20% (+SEM) inhibition compared to the reference inhibitors 33–35; X = fulfilled) |
| COC(=O)/C(C#N)=C/c1cn(CC(=O)Nc2ccccc2OC)c2ccccc12 [Compound 22, Methyl-2-cyano-3-(1-(2-((2-methoxyphenyl)amino)-2-oxoethyl)-1H-indol-3-yl) Acrylate] | 0.135 ± 0.002 µM | 26 ± 0.3 µM | 19.1 ± 0.5 µM | – | – | – | X (Compounds were considered as inhibitors if they reached 20% (+SEM) inhibition compared to the reference inhibitors 33–35; X = fulfilled) | 24.3 ± 6.4 µM | X (Compounds were considered as inhibitors if they reached 20% (+SEM) inhibition compared to the reference inhibitors 33–35; X = fulfilled) | ≥ 20% | 17.3 ± 2.2 µM | ≥ 20% | 99.5 ± 24.5 µM | X (Compounds were considered as inhibitors if they reached 20% (+SEM) inhibition compared to the reference inhibitors 33–35; X = fulfilled) |

— article PMC9841531, “Indole Derivatives as New Structural Class of Potent and Antiproliferative Inhibitors of Monocarboxylate Transporter 1 (MCT1; SLC16A1)” (Journal of Medicinal Chemistry, 2022)
